Laboratory results from patent US20150113681A1, “COMPOSITION AND METHOD FOR ENHANCING PLANT TRANSFORMATION” (SYNGENTA PARTICIPATIONS AG, priority 2013, published 2015).

Key:
sugarcane callus = assay: Sugarcane transformation, glyphosate/EPSPS selection with differing sucrose levels in selection media; format: cell-based, sugarcane (Saccharum)
Method: The method of the present invention includes embryogenic responses initiated and/or cultures established from sugar cane young leave rolls by culturing on callus induction medium. Established embryogenic cultures were weighted, and then inoculated and co-cultivated with the Agrobacterium tumefaciens strain EHA101 (Agrobacterium) containing the desired vector construction. Agrobacterium was cultured from glycerol stocks on solid YPC medium (100 mg/L spectinomycin and any other appropriate antibiotic) for about two days at 28° C. Agrobacterium is re-suspended in liquid MS-D2 medium. The Agrobacterium culture was diluted to an OD600 of 0.3-0.4 and acetosyringone is added to a final concentration of 400 uM. Acetosyringone was added before mixing the solution with the sugar cane cultures to induce Agrobacterium for DNA transfer to the plant cells. For inoculation, the cultures were immersed in the bacterial suspension. The liquid bacterial suspension is removed and the inoculated cultures were placed on empty plate for co-cultivation and incubated at 22° C. for two days. The cultures were then transferred to callus induction medium with Ticarcillin (400 mg/liter) to inhibit the growth of Agrobacterium and cultured for 4-10 days at 28° C. in dark. Referring to Table 3 below, for constructs utilizing the EPSPS selectable marker gene, cultures are transferred to selection S1 medium containing glyphosate as the selection agent and 400 mg/liter Ticarcillin and cultured for 3-4 weeks in the dark. For different treatments, the concentration of sucrose varied from 0 to 30 g/l and glyphosate level varied from 0.1 to 5 mM. […] Resistant colonies were then transferred to regeneration medium, and grown in the dark for 7 days, and then moved to the light growth room for 14 days. Regenerated shoots were transferred Rooting media for 3-4 weeks and then moved to the greenhouse when they are large enough and have adequate roots. Plants are transplanted to soil in the greenhouse (To generation), and grown to maturity.

maize immature embryos [1] = assay: Maize transformation, glyphosate/EPSPS selection with differing sucrose levels in selection media; format: cell-based, Zea mays (corn); settings: glyphosate selection
Method: (§1) Transformation of immature maize embryos is performed essentially as described in Negrotto et al., (2000) Plant Cell Reports 19: 798-803. Various media constituents described therein can be substituted. For example, the selectable marker gene and the selection agent can be modified, as in the examples below.
(§2) The genes used for transformation are cloned into a vector suitable for maize transformation as described above. Vectors used contain the either the PAT gene or the EPSPS gene as a selectable marker. PAT confers resistance to bialaphose, and EPSPS confers resistance to glyphosate.
(§3) Preparation of Agrobacterium tumefaciens: Agrobacterium strain LBA4404 (pSB1) containing the plant transformation plasmid is grown on YPC (yeast extract (5 g/L), peptone (10 g/L), NaCl (5 g/L), CaCl2.2H2O (1 g/L), 15 g/l agar, pH 6.8) solid medium for 2 to 4 days at 28° C. Approximately 0.8×10^9 Agrobacteria are suspended in inoculation medium supplemented with 100 μM acetosyringone (As) Bacteria are pre-induced in this medium for about 20 to 240 minutes.
(§4) Inoculation: Immature embryos from are excised from 8-12 day old ears after pollination. The isolated mixture of endosperms with immature embryos are suspended in the inoculation medium and poured through a 1500 um sieve after shaking. The immature embryos are captured on a 380 um sieve after pouring the suspension through. Immature embryos are gently removed from the sieve and suspended in Agrobacterium suspension on co-cultivation medium using a sterile scalpel blade after 5 min 45° C. heat shock. The immature embryo suspension is spread evenly on the co-cultivation medium and the excess Agrobacterium suspension is removed using a sterile transfer pipette and filter papers. The immature embryos are then spaced and flipped with round scutellum side up and then cultured in the dark for two to three days. Subsequently, between 20 and 45 embryos per petri plate are transferred to the medium AW5Dicamba100Ti and cultured in the dark for 28° C. for 10-14 days for callus induction.
Following co-cultivation and callus induction, the transformed calli are step-wisely selected on MS medium or MS medium contained differing concentrations of sucrose (5, 10 and 20, g/l) and glyphosate (2 mg/l) as indicated in Table 2.
In one embodiment of the present invention, in an incubation selection period referred to in Table 2 as S1, 10-20 calli from callus induction medium were transferred onto selection medium S1 and cultured for approximately 2 weeks at 28° C. in the dark. Each callus is originated from an immature embryo.
For the selection period referred to as S2, about 9 to 10 calli cultured in selection step S1 were transferred to each plate containing selection medium S2 and then cultured for approximately 2 weeks at 28° C. in dark.
For the selection period referred to as S3, about 9 to 10 calli cultured in selection period S2 were transferred to selection medium of selection period S3 containing 20 g/l sucrose and 2 mM glyphosate. and cultured for approximately 2 weeks at 28° C. in the dark.
In another embodiment and referring to Table 2, about 10 to 20 calli per plate from callus induction medium were transferred onto selection medium of selection period S1. and cultured for approximately 2-3 weeks at 28° C. in the dark. Each callus was originated from an immature embryo. About 9 to 10 calli per plates were transferred to selection medium of selection period S2. and cultured for approximately 2 weeks at 28° C. in the dark.
Regeneration of Transformed Plants: Glyphosate-resistant embryogenic callus were selected under dissecting microscope and 4 embryogenic calli per plate were transferred to regeneration medium. and cultured for approximately 2 weeks at 28° C. in the dark. The cultures were subsequently transferred to a light room for 14 days at 25° C. with a 16 hour photoperiod. […]

maize immature embryos [2] = assay: Maize transformation, bialaphos/PAT selection with differing sucrose levels in selection media; format: cell-based, Zea mays (corn)
Method: as §1, §2, §3, §4
Following co-cultivation and callus induction, the transformed calli are step-wise selected on MS medium or MS medium containing alternating concentrations of sucrose (5, 10 and 20, g/l) and bialaphos (5 and 7.5 mg/l) as indicated in Table 1. The controls comprise calli selected on MS medium supplemented with 20 g/l sucrose and 5 or 7.5 mg/l bialaphos for 4 to 6 weeks at 2 to 3 week intervals.
In a first selection period referred to in Table 1 as 51, about 10-20 calli are transferred from callus induction medium comprising 30 g/L sucrose onto 51 medium MS medium contained 5 g/l sucrose and 7.5 mg/l bialaphos and cultured for approximately 2 weeks at 28° C. in the dark. Each callus was originated from an immature embryo. For the second selection period, referred to in Table 1 as S2, about 9 to 10 calli of 51 are transferred to each plate containing S2 medium comprising 10 g/l sucrose and 7.5 mg/l bialaphose and then cultured for approximately 2 weeks at 28° C. in dark. For the third selection period referred to as S3, 9 to 10 calli are transferred from each S2 plate to S3 medium contained 20 g/l sucrose and 5 mg/l bialaphos and cultured for approximately 2 weeks at 28° C. in dark.
In another embodiment of the invention, in the first selection period S1 about 10 to 20 calli from each plate were transferred from callus induction medium comprising 30 g/L sucrose onto S1 medium containing 10 g/L of sucrose and 7.5 mg/l bialaphos and cultured for approximately 3 weeks at 28° C. in the dark. Each callus was originated from an immature embryo. 9 to 10 calli per plate were transferred from the S1 medium to S3 medium containing 20 g/L of sucrose and cultured for 2 weeks at 28° C. in dark. […]

[3] = control, 20 g/L sucrose, bialaphos selection

With `OC[C@H]1O[C@@](CO)(O[C@H]2O[C@H](CO)[C@@H](O)[C@H](O)[C@H]2O)[C@@H](O)[C@@H]1O` [sucrose] the transformation frequency (sugarcane callus; altering sucrose level and adjusting glyphosate concentration in step-wise selection) was over 7 % per gram fresh tissue, the “recovery of transgenic plants” value (sugarcane callus; standard control, MS medium with 30 g/l sucrose and 3 mM glyphosate) was “no transgenic plants were recovered” and the transformation frequency (sugarcane callus; sucrose concentration reduced to 5 g/l in selection medium) was 2.4 % per gram of fresh tissues. The transformation frequency (sugarcane callus; sucrose concentration reduced to 10 and 15 g/l) was “improved”, the regeneration frequency (maize immature embryos [1]; sucrose 5 g/L in S2 followed by 20 g/L in S3) was 87.4% and the “frequency of independent stable transgenic events (transformation frequency)” value (maize immature embryos [1]; sucrose 5 g/L in second round (S2) followed by 20 g/L in third round (S3)) was 29.5%. The regeneration frequency (maize immature embryos [1]; sucrose 10 g/L in S2 followed by 20 g/L in S3) was 86.4%, the “frequency of independent stable transgenic events” value (maize immature embryos [1]; sucrose 10 g/L in second round (S2) followed by 20 g/L in third round (S3)) was 18.3% and the “frequency of independent stable transgenic events” value (maize immature embryos [1]; negative control, standard sucrose concentration 20 g/L) was 4.8%. For the same molecule, the regeneration frequency (maize immature embryos [1]; negative control, sucrose 20 g/L) was 7.9%, the regeneration frequency (maize immature embryos [2]; 5 and 10 g/L sucrose in S1 bialaphos selection) was “more than 65%” and the “transformation frequency increase compared to the control” value (maize immature embryos [2]; 5 g/L sucrose in S1 bialaphos selection vs 20 g/L control) was 3.1 fold. The transformation frequency (maize immature embryos [2]; 5 g/L sucrose in bialaphos selection media, first round of selection (S1)) was 23.5%, the escape rate (maize immature embryos [2]; 5 g/L sucrose, bialaphos selection) was 2.4% and the “transformation frequency increase compared to the control” value (maize immature embryos [2]; 10 g/L sucrose in S1 bialaphos selection vs 20 g/L control) was 2.2 fold. The transformation frequency (maize immature embryos [2]; 10 g/L sucrose in bialaphos selection media, first round of selection (S1)) was 16.9%, the escape rate (maize immature embryos [2]; [3]) was 11.8% and the regeneration frequency (maize immature embryos [2]; [3]) was 37.4%. It also gave a transformation frequency (maize immature embryos [2]; [3]) of 7.6%.
